Measurements published in patent US20260248773A1, “POTASSIUM CHANNEL BLOCKERS OR DERIVATIVES THEREOF FOR PREVENTING, ALLEVIATING, AND/OR TREATING TISSUE DYSFUNCTION CAUSED BY TOXIC INSULTS” (priority 2022, published 2026).
Where “and” joins values, the source holds several entries; their conditions need not be identical. Equal entries are not always repeated. Where two headings read alike, the source gives them in different places.

Legend:
PTX-induced CIPN = assay: Repetitive PTX exposure, 4-AP weeks 6-12, follow-up to week 18 (Example 6); type: in vivo, mice
Procedure: To examine this question, 16 week old C7BL/6 female mice were given four cycles of PTX treatment at doses of 35 mg/kg PTX (i.p.). All animals had functionally demonstrable peripheral neuropathy at six weeks. Animals were then treated with the same dose and treatment regimen of 4-AP used in FIG. 5.

[1] = test system: glial fibrillary acidic protein (GFAP); assay: GFAP immunofluorescence in corpus callosum after PTX with or without 4-AP (Example 9); type: in vivo; settings: E0771 tumor-bearing mice; PTX 35 mg/kg day one; 4-AP daily
Procedure: To determine whether 4-AP treatment can prevent PTX-induced increases in a reactive inflammatory response in the brain, as detected by increased expression of glial fibrillary acidic protein (GFAP), 16-week-old female C57BL/6 mice were inoculated with a triple negative murine breast cancer cell line E0771. When tumors were palpable, the mice were injected with either paclitaxel and water, 4-AP, both, or saline as a control. Paclitaxel (35 mg/kg) was injected on day one and 4-AP and water were injected daily. The mice were sacrificed on day nine and their brains were perfused and harvested. Brains were cryosectioned coronally.
The mouse brain sections were stained with anti-GFAP antibodies, followed by a fluorescent secondary, for analysis via immunofluorescence.

[2] = Circulating 4-AP levels by HPLC (Example 11); type: in vivo, mice; settings: for Circulating 4-AP levels, Amount / concentration at 1 h: 1 hour after i.p. injection, individual mice; for concentration at 1 h: mouse, blood, ip, 1 /g/kg, read-out: Circulating 4-AP levels, Amount
Procedure: 4-AP was injected i.p. at the indicated time points after the beginning of treatment. Mice received PTX on day 0 of the experiment, and half of those mice also were injected with 4-AP at this time, and every day thereafter, at a dosage of 1/g/kg. Blood samples were drawn 3 and 7 days after the beginning of the experiment and were taken 1 hour after the injection of 4-AP. Circulating levels of 4-AP were determined by HPLC analysis.

[3] = test system: acute peripheral nerve traumatic crush injuries; settings: localized peripheral nerve crush injuries; cited from earlier work
[4] = 4-AP 0.5 mg/kg/day weeks 6-12, observed to week 18
[5] = 4-AP 0.5 mg/kg/day weeks 6-12, 12 and 18 week time points
[6] = mice treated with 4-AP only, 3 days post
[7] = mice treated with PTX + 4-AP, 7 day 1st draw

## Nc1ccncc1 [4-AP, 4-aminopyridine]
PTX-induced CIPN; 4-AP 0.5 mg/kg/day weeks 6-12
  nerve conduction latency: reverse PTX-induced abnormalities in nerve conduction latency
PTX-induced CIPN; [4]
  Catwalk Regularity Index: benefits observed at Week 9 (i.e, after 3 weeks of 4-AP treatment) and retained for at least 6 weeks after 4-AP treatment ended
  durability of benefits on peripheral nerve function: Benefits were still present six weeks after the end of treatment
  mechanical hypersensitivity, von Frey filament testing: Benefits began to be observed at Week 12 and were maintained at Weeks 15 and 18
  paw lifts and jumping behavior, cold-plate stimulus: durable reversal
PTX-induced CIPN; [5]
  G-ratio: restored to normal at the 12 week time point, and these benefits are maintained at the 18 week time point
  circularity: restored to normal at the 12 week time point, and these benefits are maintained at the 18 week time point
[1]
  PTX-induced increased expression of GFAP, corpus callosum: greatly reduced
[2]; PTX day 0, 4-AP daily
  PTX-induced changes in kidney function (inferred from 4-AP renal clearance): prevented PTX-induced changes in kidney function
[2]; day 3 or day 7, 1 hour after i.p. injection
  circulating 4-AP levels, 4-AP alone versus 4-AP+PTX: did not differ
[2]; [6]
  Circulating 4-AP levels, Amount: 0.393 µM and 0.376 µM and 0.486 µM and 0.427 µM
  concentration at 1 h: 298 nM
[2]; mice treated with 4-AP only, 7 day 1st draw
  Circulating 4-AP levels, Amount: 0.376 µM and 0.246 µM and 0.293 µM and 0.140 µM and 0.337 µM
[2]; mice treated with PTX + 4-AP, 3 days post
  Circulating 4-AP levels, Amount: 0.721 µM and 0.504 µM and 0.312 µM and 0.321 µM and 0.277 µM
[2]; [7]
  Circulating 4-AP levels, Amount: 0.292 µM and 0.274 µM and 0.236 µM and 0.231 µM
  concentration at 1 h: 352 nM
[3]
  recovery of thermal hyperalgesia and mechanical allodynia: enhanced recovery on the specific parameter or thermal hyperalgesia, but not mechanical allodynia
